For 7 molecules, EC50 results are on record in patent US12703729B2, “GIP agonist compounds and methods” (Zealand Pharma A/S, priority 2014, dated 2026).

Starred links: 1 amine or outer side, 2 acyl side, 3 side chain; linkers in the order of their positions; H or OH if unused. Non-standard residues stand in square brackets, D forms with d. Residues, ends and D or L forms follow the SMILES beside them. Groups on a side chain read outwards from the residue. *: point of attachment. C20 diacid = O=C(O)CCCCCCCCCCCCCCCCCCC(=O)*; γGlu = O=C(O)[C@H](CCC(=O)[*:2])N[*:1]; Palmitoyl = CCCCCCCCCCCCCCCC(=O)*; AEEA = NCCOCCOCC(=O)O; Aib = CC(C)(N)C(=O)O

Assay [1] concerns the target T1, human GIP R (Homo sapiens, UniProt P48546).
T1 sequence (P48546 22-466): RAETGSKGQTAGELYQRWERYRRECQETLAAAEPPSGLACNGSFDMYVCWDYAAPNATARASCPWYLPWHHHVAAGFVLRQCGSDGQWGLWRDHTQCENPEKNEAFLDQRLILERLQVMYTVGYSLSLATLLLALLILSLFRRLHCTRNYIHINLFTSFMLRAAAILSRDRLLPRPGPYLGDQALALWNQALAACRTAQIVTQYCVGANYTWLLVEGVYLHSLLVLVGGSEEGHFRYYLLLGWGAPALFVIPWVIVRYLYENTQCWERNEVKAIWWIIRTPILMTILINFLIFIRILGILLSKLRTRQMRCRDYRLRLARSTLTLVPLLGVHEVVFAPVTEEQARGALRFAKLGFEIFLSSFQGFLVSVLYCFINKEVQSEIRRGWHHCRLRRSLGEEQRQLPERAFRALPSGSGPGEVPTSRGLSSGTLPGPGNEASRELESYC
Briefly: cell-based.

Assay [2] has as its target T2, human GIP receptor (GIP R) (Homo sapiens, UniProt P48546).
T2 sequence (P48546 22-466): T1 sequence (P48546 22-466)
The experiment in a line: Activity assay at human GIP receptor, cAMP induction (AlphaScreen), Example 3.

For `CCCCCCCCCCCCCCCC(=O)N[C@@H](CCC(=O)NCCCC[C@H](NC(=O)[C@H](CCCCN)NC(=O)[C@H](CC(=O)O)NC(=O)[C@H](CC(C)C)NC(=O)[C@H](CCC(=O)O)NC(=O)[C@@H](NC(=O)[C@H](CO)NC(=O)[C@H](Cc1ccc(O)cc1)NC(=O)[C@H](CC(=O)O)NC(=O)[C@H](CO)NC(=O)[C@@H](NC(=O)[C@H](Cc1ccccc1)NC(=O)[C@@H](NC(=O)CNC(=O)[C@H](CCC(=O)O)NC(=O)C(C)(C)NC(=O)[C@@H](N)Cc1ccc(O)cc1)[C@@H](C)O)[C@@H](C)CC)[C@@H](C)CC)C(=O)N[C@@H](Cc1c[nH]cn1)C(=O)N[C@@H](CCC(N)=O)C(=O)N[C@@H](CCC(N)=O)C(=O)N[C@@H](CC(=O)O)C(=O)N[C@@H](Cc1ccccc1)C(=O)N[C@H](C(=O)N[C@@H](CC(N)=O)C(=O)N[C@@H](Cc1c[nH]c2ccccc12)C(=O)N[C@@H](CC(C)C)C(=O)N[C@@H](CC(C)C)C(=O)N[C@@H](C)C(=O)N[C@@H](CCC(N)=O)C(=O)NCC(=O)N1CCC[C@H]1C(=O)N[C@@H](CO)C(=O)N[C@@H](CO)C(=O)NCC(=O)N[C@@H](C)C(=O)N1CCC[C@H]1C(=O)N1CCC[C@H]1C(=O)N1CCC[C@H]1C(=O)N[C@@H](CO)C(N)=O)C(C)C)C(=O)O` [Compound 1] (H-Y[Aib]EGTFISDYSIELDKK([γGlu-Palmitoyl])HQQDFVNWLLAQGPSSGAPPPS-NH2), in assay [1], the response was half-maximal at 0.008 nM (EC50). As for `CCCCCCCCCCCCCCCC(=O)N[C@@H](CCC(=O)NCCCC[C@H](NC(=O)[C@H](CC(=O)O)NC(=O)[C@H](CC(C)C)NC(=O)[C@H](CCC(=O)O)NC(=O)[C@@H](NC(=O)[C@H](CO)NC(=O)[C@H](Cc1ccc(O)cc1)NC(=O)[C@H](CC(=O)O)NC(=O)[C@H](CO)NC(=O)[C@@H](NC(=O)[C@H](Cc1ccccc1)NC(=O)[C@@H](NC(=O)CNC(=O)[C@H](CCC(=O)O)NC(=O)C(C)(C)NC(=O)[C@@H](N)Cc1ccc(O)cc1)[C@@H](C)O)[C@@H](C)CC)[C@@H](C)CC)C(=O)N[C@H](C(=O)N[C@@H](Cc1c[nH]cn1)C(=O)N[C@@H](CCC(N)=O)C(=O)N[C@@H](CCC(N)=O)C(=O)N[C@@H](CC(=O)O)C(=O)N[C@@H](Cc1ccccc1)C(=O)N[C@H](C(=O)N[C@@H](CC(N)=O)C(=O)N[C@@H](Cc1c[nH]c2ccccc12)C(=O)N[C@@H](CC(C)C)C(=O)N[C@@H](CC(C)C)C(=O)N[C@@H](C)C(=O)N[C@@H](CCC(N)=O)C(=O)NCC(=O)N1CCC[C@H]1C(=O)N[C@@H](CO)C(=O)N[C@@H](CO)C(=O)NCC(=O)N[C@@H](C)C(=O)N1CCC[C@H]1C(=O)N1CCC[C@H]1C(=O)N1CCC[C@H]1C(=O)N[C@@H](CO)C(N)=O)C(C)C)[C@@H](C)CC)C(=O)O` [Compound 2] (H-Y[Aib]EGTFISDYSIELDK([γGlu-Palmitoyl])IHQQDFVNWLLAQGPSSGAPPPS-NH2), the EC50 is 0.008 nM in assay [2] and 0.013 nM in assay [1]. For `CCCCCCCCCCCCCCCC(=O)N[C@@H](CCC(=O)NCCCC[C@H](NC(=O)[C@H](CCCCN)NC(=O)[C@H](CCC(=O)O)NC(=O)[C@H](CC(C)C)NC(=O)[C@H](CCC(=O)O)NC(=O)[C@@H](NC(=O)[C@H](CO)NC(=O)[C@H](Cc1ccc(O)cc1)NC(=O)[C@H](CC(=O)O)NC(=O)[C@H](CO)NC(=O)[C@@H](NC(=O)[C@H](Cc1ccccc1)NC(=O)[C@@H](NC(=O)CNC(=O)[C@H](CCC(=O)O)NC(=O)C(C)(C)NC(=O)[C@@H](N)Cc1ccc(O)cc1)[C@@H](C)O)[C@@H](C)CC)[C@@H](C)CC)C(=O)N[C@@H](Cc1c[nH]cn1)C(=O)N[C@@H](CCC(N)=O)C(=O)N[C@@H](CCC(N)=O)C(=O)N[C@@H](CC(=O)O)C(=O)N[C@@H](Cc1ccccc1)C(=O)N[C@H](C(=O)N[C@@H](CC(N)=O)C(=O)N[C@@H](Cc1c[nH]c2ccccc12)C(=O)N[C@@H](CC(C)C)C(=O)N[C@@H](CC(C)C)C(=O)N[C@@H](C)C(=O)N[C@@H](CCC(N)=O)C(=O)NCC(=O)N1CCC[C@H]1C(=O)N[C@@H](CO)C(=O)N[C@@H](CO)C(=O)NCC(=O)N[C@@H](C)C(=O)N1CCC[C@H]1C(=O)N1CCC[C@H]1C(=O)N1CCC[C@H]1C(=O)N[C@@H](CO)C(N)=O)C(C)C)C(=O)O` [Compound 3] (H-Y[Aib]EGTFISDYSIELEKK([γGlu-Palmitoyl])HQQDFVNWLLAQGPSSGAPPPS-NH2), the EC50 in assay [2] and in assay [1] was 0.014 nM throughout.

`CC[C@H](C)[C@H](NC(=O)[C@H](CCCCN)NC(=O)[C@H](CC(=O)O)NC(=O)[C@H](CC(C)C)NC(=O)[C@H](CCC(=O)O)NC(=O)[C@@H](NC(=O)[C@H](CO)NC(=O)[C@H](Cc1ccc(O)cc1)NC(=O)[C@H](CC(=O)O)NC(=O)[C@H](CO)NC(=O)[C@@H](NC(=O)[C@H](Cc1ccccc1)NC(=O)[C@@H](NC(=O)CNC(=O)[C@H](CCC(=O)O)NC(=O)C(C)(C)NC(=O)[C@@H](N)Cc1ccc(O)cc1)[C@@H](C)O)[C@@H](C)CC)[C@@H](C)CC)C(=O)N[C@@H](Cc1c[nH]cn1)C(=O)N[C@@H](CCC(N)=O)C(=O)N[C@@H](CCC(N)=O)C(=O)N[C@@H](CC(=O)O)C(=O)N[C@@H](Cc1ccccc1)C(=O)N[C@H](C(=O)N[C@@H](CC(N)=O)C(=O)N[C@@H](Cc1c[nH]c2ccccc12)C(=O)N[C@@H](CC(C)C)C(=O)N[C@@H](CC(C)C)C(=O)N[C@@H](C)C(=O)N[C@@H](CCC(N)=O)C(=O)NCC(=O)N1CCC[C@H]1C(=O)N[C@@H](CO)C(=O)N[C@@H](CO)C(=O)NCC(=O)N[C@@H](C)C(=O)N1CCC[C@H]1C(=O)N1CCC[C@H]1C(=O)N1CCC[C@H]1C(=O)N[C@@H](CO)C(=O)N[C@@H](CCCCNC(=O)COCCOCCNC(=O)COCCOCCNC(=O)CC[C@H](NC(=O)CCCCCCCCCCCCCCCCCCC(=O)O)C(=O)O)C(N)=O)C(C)C` [Compound 4] (H-Y[Aib]EGTFISDYSIELDKIHQQDFVNWLLAQGPSSGAPPPSK([AEEA-AEEA-γGlu-C20 diacid])-NH2): the EC50 in assay [2] worked out at 0.014 nM; in assay [1], 0.013 nM.

As for `CCCCCCCCCCCCCCCC(=O)N[C@@H](CCC(=O)NCCCC[C@H](NC(=O)[C@H](CO)NC(=O)[C@@H]1CCCN1C(=O)[C@@H]1CCCN1C(=O)[C@@H]1CCCN1C(=O)[C@H](C)NC(=O)CNC(=O)[C@H](CO)NC(=O)[C@H](CO)NC(=O)[C@@H]1CCCN1C(=O)CNC(=O)[C@H](CCC(N)=O)NC(=O)[C@H](C)NC(=O)[C@H](CC(C)C)NC(=O)[C@H](CC(C)C)NC(=O)[C@H](Cc1c[nH]c2ccccc12)NC(=O)[C@H](CC(N)=O)NC(=O)[C@@H](NC(=O)[C@H](Cc1ccccc1)NC(=O)[C@H](CC(=O)O)NC(=O)[C@H](CCC(N)=O)NC(=O)[C@H](CCC(N)=O)NC(=O)[C@H](Cc1c[nH]cn1)NC(=O)[C@@H](NC(=O)[C@H](CCCCN)NC(=O)[C@H](CC(=O)O)NC(=O)[C@H](CC(C)C)NC(=O)[C@H](CCC(=O)O)NC(=O)[C@@H](NC(=O)[C@H](CO)NC(=O)[C@H](Cc1ccc(O)cc1)NC(=O)[C@H](CC(=O)O)NC(=O)[C@H](CO)NC(=O)[C@@H](NC(=O)[C@H](Cc1ccccc1)NC(=O)[C@@H](NC(=O)CNC(=O)[C@H](CCC(=O)O)NC(=O)C(C)(C)NC(=O)[C@@H](N)Cc1ccc(O)cc1)[C@@H](C)O)[C@@H](C)CC)[C@@H](C)CC)[C@@H](C)CC)C(C)C)C(N)=O)C(=O)O` [Compound 5] (H-Y[Aib]EGTFISDYSIELDKIHQQDFVNWLLAQGPSSGAPPPSK([γGlu-Palmitoyl])-NH2), the EC50 in assay [2] and in assay [1] was 0.014 nM in each case. `CCCCCCCCCCCCCCCC(=O)N[C@@H](CCC(=O)NCCCC[C@H](NC(=O)[C@H](CCC(N)=O)NC(=O)[C@H](C)NC(=O)[C@H](CC(C)C)NC(=O)[C@H](CC(C)C)NC(=O)[C@H](Cc1c[nH]c2ccccc12)NC(=O)[C@H](CC(N)=O)NC(=O)[C@@H](NC(=O)[C@H](Cc1ccccc1)NC(=O)[C@H](CC(=O)O)NC(=O)[C@H](CCC(N)=O)NC(=O)[C@H](CCC(N)=O)NC(=O)[C@H](Cc1c[nH]cn1)NC(=O)[C@@H](NC(=O)[C@H](CCCCN)NC(=O)[C@H](CC(=O)O)NC(=O)[C@H](CC(C)C)NC(=O)[C@H](CCC(=O)O)NC(=O)[C@@H](NC(=O)[C@H](CO)NC(=O)[C@H](Cc1ccc(O)cc1)NC(=O)[C@H](CC(=O)O)NC(=O)[C@H](CO)NC(=O)[C@@H](NC(=O)[C@H](Cc1ccccc1)NC(=O)[C@@H](NC(=O)CNC(=O)[C@H](CCC(=O)O)NC(=O)C(C)(C)NC(=O)[C@@H](N)Cc1ccc(O)cc1)[C@@H](C)O)[C@@H](C)CC)[C@@H](C)CC)[C@@H](C)CC)C(C)C)C(N)=O)C(=O)O` [Compound 6] (H-Y[Aib]EGTFISDYSIELDKIHQQDFVNWLLAQK([γGlu-Palmitoyl])-NH2): the EC50 was 0.014 nM in assay [2] and 0.032 nM in assay [1]. In assay [2], `CCCCCCCCCCCCCCCC(=O)N[C@@H](CCC(=O)NCCCC[C@H](NC(=O)CNC(=O)[C@H](CCCCN)NC(=O)[C@H](CCC(N)=O)NC(=O)[C@H](C)NC(=O)[C@H](CC(C)C)NC(=O)[C@H](CC(C)C)NC(=O)[C@H](Cc1c[nH]c2ccccc12)NC(=O)[C@H](CC(N)=O)NC(=O)[C@@H](NC(=O)[C@H](Cc1ccccc1)NC(=O)[C@H](CC(=O)O)NC(=O)[C@H](CCC(N)=O)NC(=O)[C@H](CCC(N)=O)NC(=O)[C@H](Cc1c[nH]cn1)NC(=O)[C@@H](NC(=O)[C@H](CCCCN)NC(=O)[C@H](CC(=O)O)NC(=O)[C@H](CC(C)C)NC(=O)[C@H](CCC(=O)O)NC(=O)[C@@H](NC(=O)[C@H](CO)NC(=O)[C@H](Cc1ccc(O)cc1)NC(=O)[C@H](CC(=O)O)NC(=O)[C@H](CO)NC(=O)[C@@H](NC(=O)[C@H](Cc1ccccc1)NC(=O)[C@@H](NC(=O)CNC(=O)[C@H](CCC(=O)O)NC(=O)C(C)(C)NC(=O)[C@@H](N)Cc1ccc(O)cc1)[C@@H](C)O)[C@@H](C)CC)[C@@H](C)CC)[C@@H](C)CC)C(C)C)C(N)=O)C(=O)O` [Compound 7] (H-Y[Aib]EGTFISDYSIELDKIHQQDFVNWLLAQKGK([γGlu-Palmitoyl])-NH2) registered an EC50 of 0.032 nM.
